Experiments:
[1] = target: T1, human muscle glycogen phosphorylase a (HMGPa) (Homo sapiens, UniProt P11217); experiment: GPa activity assay, reverse direction (release of inorganic phosphate from glucose-1-phosphate), HMGPa; type: biochemical; settings: recombinant human muscle GPa, glucose present
T1 construct: made in house; host or cells: E. coli XL-1 Blue (pKK233-2)
T1 sequence (P11217 1-842): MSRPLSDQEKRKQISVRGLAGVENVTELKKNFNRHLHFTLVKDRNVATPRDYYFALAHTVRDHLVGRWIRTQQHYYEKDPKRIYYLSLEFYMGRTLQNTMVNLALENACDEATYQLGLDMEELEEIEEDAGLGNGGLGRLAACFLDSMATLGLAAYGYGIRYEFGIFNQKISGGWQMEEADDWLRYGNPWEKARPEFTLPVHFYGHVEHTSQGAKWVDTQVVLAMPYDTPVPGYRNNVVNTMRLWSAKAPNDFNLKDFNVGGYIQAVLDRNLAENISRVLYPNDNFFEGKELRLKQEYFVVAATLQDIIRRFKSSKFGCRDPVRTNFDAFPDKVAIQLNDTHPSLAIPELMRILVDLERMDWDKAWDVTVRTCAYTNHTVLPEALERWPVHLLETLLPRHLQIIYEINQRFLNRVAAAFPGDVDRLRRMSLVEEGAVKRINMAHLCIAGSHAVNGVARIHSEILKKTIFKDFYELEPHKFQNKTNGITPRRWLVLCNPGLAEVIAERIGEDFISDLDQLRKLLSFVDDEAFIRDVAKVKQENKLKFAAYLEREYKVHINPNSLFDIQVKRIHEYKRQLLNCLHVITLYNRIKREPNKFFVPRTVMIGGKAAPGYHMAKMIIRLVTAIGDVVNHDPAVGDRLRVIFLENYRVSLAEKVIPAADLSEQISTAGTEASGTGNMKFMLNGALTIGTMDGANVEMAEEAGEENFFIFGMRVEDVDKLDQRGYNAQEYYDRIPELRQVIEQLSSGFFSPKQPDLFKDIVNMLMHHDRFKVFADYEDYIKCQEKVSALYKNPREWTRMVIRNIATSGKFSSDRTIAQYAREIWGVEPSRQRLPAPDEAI
Experimental: (§1) In this invention, enzyme activity is determined by measurement of the reverse activity of GPa, i.e., by measuring the release of phosphate due to the incorporation of glucose-1-phosphate into glycogen, where the amount of phosphate released is determined using the spectrophotometric method and experimental conditions described hereinbelow.
(§2) The three different purified glycogen phosphorylase (GP) isoenzymes from a human source, wherein glycogen phosphorylase is in the activated “a” state (referred to as glycogen phosphorylase a, or the abbreviation GPa), and referred to here as human liver glycogen phosphorylase a (HLGPa), human muscle glycogen phosphorylase a (HMGPa), and human brain glycogen phosphorylase a (HBGPa), can be obtained by the following procedures.
(§3) The effect of the compounds of Formula I or IA on the activity of the activated form of glycogen phosphorylase (GPa) can be determined by one of two methods; glycogen phosphorylase a activity is measured in the forward direction by monitoring the production of glucose-1-phosphate from glycogen or by following the reverse reaction, measuring glycogen synthesis from glucose-I-phosphate by the release of inorganic phosphate. All reactions are run in triplicate in 96-well microtiter plates and the change in absorbance due to formation of the reaction product is measured at the wavelength specified below in a MCC/340 MKII Elisa Reader (Lab Systems, Finland), connected to a Titertech Microplate Stacker (ICN Biomedical Co, Huntsville, Ala.).
(§4) Buffer B is at pH 7.2 and contains 50 mM HEPES, 100 mM KCl, 2.5 mM EGTA, 2.5 mM MgCl2 and 0.5 mM dithiothreitol. […] The compounds to be tested are added as 5 μL of solution in 14% DMSO prior to the addition of the enzyme. […] After a 20 minute incubation at room temperature, the absorbance is measured at 620 nm.
(§5) The above assays carried out with a range of concentrations of test compound allows the determination of an IC50 value (as defined hereinabove, see e.g., p. 14) for the in vitro inhibition of GPa enzyme activity by that test compound.

[2] = target: T2, human liver glycogen phosphorylase a (HLGPa) (Homo sapiens, UniProt P06737); experiment: GPa activity assay, reverse direction (release of inorganic phosphate from glucose-1-phosphate), HLGPa; type: biochemical; settings: recombinant human liver GPa, glucose present
T2 construct: made in house; host or cells: E. coli XL-1 Blue (pKK233-2) or Sf9 insect cells (pBlueBac II baculovirus)
T2 sequence (P06737 1-847): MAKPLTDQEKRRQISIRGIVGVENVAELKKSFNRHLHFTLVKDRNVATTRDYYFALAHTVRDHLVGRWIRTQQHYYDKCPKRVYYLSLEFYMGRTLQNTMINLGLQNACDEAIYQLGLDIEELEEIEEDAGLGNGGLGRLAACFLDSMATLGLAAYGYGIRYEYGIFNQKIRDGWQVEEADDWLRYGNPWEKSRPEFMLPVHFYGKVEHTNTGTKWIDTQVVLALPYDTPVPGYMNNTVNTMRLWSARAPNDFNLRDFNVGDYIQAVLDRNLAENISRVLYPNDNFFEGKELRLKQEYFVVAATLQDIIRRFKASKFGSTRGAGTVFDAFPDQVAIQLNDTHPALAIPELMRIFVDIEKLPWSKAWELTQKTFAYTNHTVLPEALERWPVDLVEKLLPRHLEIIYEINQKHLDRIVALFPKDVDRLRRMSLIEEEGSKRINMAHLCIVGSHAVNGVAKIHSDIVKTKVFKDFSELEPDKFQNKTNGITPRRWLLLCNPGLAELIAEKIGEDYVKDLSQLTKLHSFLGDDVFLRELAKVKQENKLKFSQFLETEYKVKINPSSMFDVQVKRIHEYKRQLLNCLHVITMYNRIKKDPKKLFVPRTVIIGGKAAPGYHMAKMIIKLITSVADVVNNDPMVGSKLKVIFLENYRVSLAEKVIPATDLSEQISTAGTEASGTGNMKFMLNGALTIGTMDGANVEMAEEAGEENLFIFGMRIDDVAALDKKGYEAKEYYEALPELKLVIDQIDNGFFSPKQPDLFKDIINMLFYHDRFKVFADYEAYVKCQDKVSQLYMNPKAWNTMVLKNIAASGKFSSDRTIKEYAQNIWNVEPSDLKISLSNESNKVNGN
Experimental: as §1, §2, §3, §4, §5

SMILES | IC50 [1] | IC50 [2]
O=C(NCC(=O)N1CCSC1)c1cc2cc(Cl)ccc2[nH]1 [5-chloro-1H-indole-2-carboxylic acid (2-oxo-2-thiazolidin-3-yl-ethyl)-amide] | 0.433 µM | 0.307 µM
O=C(NC(Cc1ccccc1)C(=O)N1CCC(O)C1)c1cc2cc(Cl)ccc2[nH]1 (centres unmarked) [5-chloro-1H-indole-2-carboxylic acid [1-benzyl-2-(3-hydroxypyrrolidin-1-yl)-2-oxo-ethyl]-amide] | 0.085 µM | 0.045 µM
O=C(N[C@@H](Cc1ccccc1)C(=O)N1C[C@@H](O)[C@@H](O)C1)c1cc2cc(Cl)ccc2[nH]1 [5-chloro-1H-indole-2-carboxylic acid [(1S)-benzyi-2-(cis-3,4-dihydroxypyrrolidin-1-yl)-2-oxo-ethyl]-amide] | 0.097 µM | 0.03 µM
O=C(N[C@@H](Cc1ccccc1)C(=O)N1CC(O)C1)c1cc2cc(Cl)ccc2[nH]1 [5-chloro-1H-indole-2-carboxylic acid [(1S)-benzyl-2-(3-hydroxy-azetidin-1-yl)-2-oxo-ethyl]-amide] | 0.121 µM | 0.065 µM
O=C(N[C@@H](Cc1ccccc1)C(=O)N1CC(=NO)C1)c1cc2cc(Cl)ccc2[nH]1 [5-chloro-1H-indole-2-carboxylic acid [(1S)-benzyl-2-(3-hydroxyimino-azetidin-1-yl)-2-oxo-ethyl]-amide] | 0.084 µM | 0.065 µM
O=C(N[C@@H](Cc1ccccc1)C(=O)N1C[C@H](O)[C@@H](O)C1)c1cc2cc(Cl)ccc2[nH]1 [5-chloro-1H-indole-2-carboxylic acid [(1S)-benzyl-2-((3S,4S)-dihydroxy-pyrrolidin-1-yl)-2-oxo-ethyl-amide] | 0.071 µM | 0.137 µM
O=C(N[C@@H](Cc1ccccc1)[C@@H](O)C(=O)N1CC(O)C1)c1cc2cc(Cl)ccc2[nH]1 [5-chloro-1H-indole-2-carboxylic acid [(1S)-benzyl-3-((3-hydroxyazetidin-1-yl)-(2R)-hydroxy-3-oxopropyl]-amide] | 0.706 µM | 0.236 µM
O=C(N[C@@H](Cc1ccccc1)[C@@H](O)C(=O)N1C[C@@H](O)[C@@H](O)C1)c1cc2cc(Cl)ccc2[nH]1 [5-chloro-1H-indole-2-carboxylic acid [(1S)-benzyl-3-(cis-3,4-dihydroxy-pyrrolidin-1-yl)-(2R)-hydroxy-3-oxopropyl]-amide] | 0.385 µM | 0.059 µM
O=C(N[C@@H](Cc1ccccc1)[C@@H](O)C(=O)N1CC[C@H](O)C1)c1cc2cc(Cl)ccc2[nH]1 [5-chloro-1H-indole-2-carboxylic acid [(1S)-benzyl-(2R)-hydroxy-3-((3S)-hydroxy-pyrrolidin-1-yl)-3-oxopropyl]-amide] | 0.096 µM | 0.054 µM
O=C(N[C@@H](Cc1ccccc1)[C@@H](O)C(=O)N1C[C@H](O)[C@@H](O)C1)c1cc2cc(Cl)ccc2[nH]1 [5-chloro-1H-indole-2-carboxylic acid [(1S)-benzyl-(2R)-hydroxy-3-((3S,4S)-dihydroxy-pyrrolidin-1-yl)-3-oxopropyl]-amide] | 0.09 µM | 0.073 µM
